The text below walks through data of patent US11014898B1, “Benzothiazepine compounds and their use as bile acid modulators” (Albireo AB, priority 2020, dated 2021).

pIC50: −log10 of the molar value.

Series [1] deals with T1, Human LBAT (Homo sapiens, UniProt Q14973).
T1 construct: expressed in transfected cells; cells kept under Geneticin selection
T1 sequence (Q14973 1-349): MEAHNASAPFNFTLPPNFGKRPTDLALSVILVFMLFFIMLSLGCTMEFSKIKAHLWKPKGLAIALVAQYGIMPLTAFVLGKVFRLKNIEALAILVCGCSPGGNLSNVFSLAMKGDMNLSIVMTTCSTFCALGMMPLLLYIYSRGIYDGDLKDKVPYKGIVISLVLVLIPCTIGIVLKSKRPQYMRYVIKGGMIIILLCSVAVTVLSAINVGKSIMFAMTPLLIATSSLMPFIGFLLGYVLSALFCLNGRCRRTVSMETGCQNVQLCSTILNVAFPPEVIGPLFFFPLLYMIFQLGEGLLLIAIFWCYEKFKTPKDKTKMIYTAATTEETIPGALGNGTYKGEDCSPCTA
Put plainly: LBAT (h) assay: 3H-taurocholic acid uptake in human LBAT-overexpressing cells. Type of series: cell-based. Conditions: 0.3 μM 3H-taurocholic acid and 7.5 μM cold taurocholic acid, 20 minutes, read-out: hLBAT IC50. On the procedure: 20,000 cells (Human or Mouse LBAT-overexpressing cells) were seeded in 96-wells plate (Corning CLS3809) in 100 μL MEM-alpha medium (Gibco 12571-063) supplemented with 10% FBS (Gibco 10438026) containing Geneticin (Gibco 10131-027) (1 mg/mL) and incubated at 37° C. in 5% CO2 for 24 hours. After incubation, media was decanted from the wells and cells were washed two times with 300 μL of basal MEM-alpha medium (FBS-free). After decanting basal MEM-alpha medium each time, plates were tapped against paper towel to ensure maximum removal of residual media. For human LBAT, incubation mix was prepared by adding test inhibitor dilutions (3-fold serial dilution in DMSO (Sigma D2650), 10 points) in MEM-alpha (without FBS) containing 0.3 μM 3H-taurocholic acid (ARC ART-1368) and 7.5 μM cold taurocholic acid (Sigma T4009) (maintaining 0.2% final DMSO concentration). For mouse LBAT, incubation mix was prepared by adding test inhibitor dilutions (3-fold serial dilution in DMSO, 10 points) in MEM-alpha (without FBS) containing 0.3 μM 3H-taurocholic acid and 25 μM cold taurocholic acid maintaining 0.2% final DMSO concentration).
50 μL of incubation mix containing test inhibitors was then added to the wells (in duplicate) and the plates were incubated for 20 minutes in a CO2 incubator at 37° C. After incubation, the reaction was stopped by keeping the plates on ice water mix for 2-3 minutes and then the incubation mix was aspirated completely from the wells. The wells were washed two times with 250 μL of chilled unlabelled 1 mM taurocholic acid dissolved in HEPES (Gibco 15630080)-buffered (10 mM) HBSS (Gibco 14175079) (pH 7.4). The plates were tapped against a paper towel after every wash to ensure maximum removal of blocking buffer.
100 μL of MicroScint-20 (PerkinElmer 6013621) was added to the wells and kept overnight at room temperature before reading the plates in TopCount NXT™ Microplate Scintillation and Luminescence Counter from PerkinElmer under 3H Test protocol (set at 120 seconds reading time per well, with normal plate orientation).
All test compounds were provided in powder form at room temperature. 10 mM DMSO stocks of the test compounds were prepared, aliquoted and stored at −20° C. From the 10 mM DMSO stock of the compounds, a 3-fold serial dilution in DMSO was prepared to get a total of 10 dilutions of the test compounds. 0.5 μL of this dilution in DMSO was added to 250 μL of FBS-free basal media containing 3H-taurocholic acid and cold taurocholic acid to prepare the incubation mixture.

A short description of series [2]: Bidirectional permeability assay (Caco-2 cells). Type of series: in vitro ADME. Conditions: human, Caco-2, pH 7.4, 10 μM in FaSSIF buffer, 120 minutes at 37° C.; for Papp A→B at 120 min, 10 μM: absorptive direction (A2B); for Papp B→A at 120 min, 10 μM: secretory direction (B2A). On the procedure: Caco-2 cells (Evotec) were seeded at a density of 70,000 cells/well in Millicell® 24-well cell culture insert plates and maintained in an incubator (37° C., 5% CO2, 95% RH) for 21 days with media change on alternate days.
Stock solutions (10 mM) of the test compounds, atenolol (low permeability marker), propranolol (high permeability marker) and digoxin (substrate for P-gp transport pathway) were prepared in dimethylsulfoxide (DMSO). An intermediate stock solution (1 mM) was prepared by diluting 10 μL of 10 mM master stock solution with 90 μL of neat DMSO. A working stock solution (10 μM) was prepared by diluting 50 μL of 1 mM with 4950 μL of FaSSIF buffer. Post addition of compounds to the FaSSIF, samples were subjected to sonication for 2 hours, and centrifuged at 4000 RPM for 30 minutes at 37° C. The 4 mL of resultant supernatant was directly used in the assay. The final DMSO concentration in the transport experiments was 1%.
On the day of assay, Caco-2 monolayers were washed twice with transport buffer (HBSS, pH 7.4) and pre-incubated for 30 min (37° C., 5% CO2, 95% RH) in an incubator. The electrical resistance of the monolayers was measured with a Millicell®-ERS system. Monolayers with trans-epithelial electrical resistance (TEER) values greater than 350 ohm·cm^2 were selected for the assay.
The assay was conducted in absorptive direction (A2B) and secretory (B2A) directions. Transport experiments were initiated by addition of transport assay buffer (FaSSIF buffer prepared in HBSS) consisting of compounds to the donor compartment (apical chamber A-B; basolateral chamber B-A) in duplicate (n=2) wells. Drug free HBSS buffer (pH 7.4) containing 1% bovine serum albumin (BSA) was introduced to the receiver (A-B-basolateral; B-A-Apical) compartments. The volumes of apical and basolateral compartments were 0.4 and 0.8 mL, respectively. After adding dosing solution, plates were incubated in an incubator for 120 minutes at 37° C. After 120 minutes, donor and receiver samples were collected and matrix matched (1:1, 30 μL study sample+30 μL blank buffer) with the opposite buffer. Dosing samples matrix matched (1:1, 30 μL study sample+30 μL blank buffer) with the opposite buffer. Samples were processed by adding acetonitrile containing internal standard (60 μL study sample+200 μL acetonitrile containing internal standard-Tolbutamide, 500 ng/mL). Samples were vortexed and centrifuged at 4000 rpm for 10 minutes. The obtained supernatant (100 μL) was diluted with 100 μL of water and transferred to fresh 96 well plates. The concentration of compounds in the samples was analyzed by liquid chromatography tandem mass spectrometry (LC-MS/MS) method using discovery grade bio-analytical method, as applicable.
The mean apparent permeability (Papp×10^−6 cm/sec) of the test compounds, atenolol, propranolol and digoxin were calculated as follows:
where dq/dt=rate of transport (rate of transport of compound in the receiver compartment), C0=initial concentration in the donor compartment, A=surface area of the effective filter membrane.

A word on the pIC50: it is −log10 of the IC50, conventionally taken in molar units. Broadly, the Papp A→B is the apparent permeability from the apical to the basolateral side of a cell layer. A low value points to slow passage. As usually defined, the Papp B→A is the apparent permeability from the basolateral to the apical side of a cell layer. On to `CCCCC1(CCCC)CN(c2ccc(Br)cc2)c2cc(SC)c(OCC(=O)O)cc2S(=O)(=O)C1` [Example 3, 2-((5-(4-bromophenyl)-3,3-dibutyl-7-(methylthio)-1,1-dioxido-2,3,4,5-tetrahydro-1,5-benzothiazepin-8-yl)oxy)acetic Acid], for which the pIC50 in series [1] is 5.55. Moreover, in series [2], the apparent permeability from apical to basolateral (Papp A→B) at 120 min, 10 μM amounted to 41 nm/s and the Papp B→A at 120 min, 10 μM is 19 nm/s.
Taken in the same sequence, the figures for `CCCCC1(CCCC)CN(c2ccc(O)cc2)c2cc(SC)c(OCC(=O)O)cc2S(=O)(=O)C1` [Example 4, 2-((3,3-dibutyl-5-(4-hydroxyphenyl)-7-(methylthio)-1,1-dioxido-2,3,4,5-tetrahydro-1,5-benzothiazepin-8-yl)oxy)acetic Acid] were 5.70, 33 nm/s and 89 nm/s.
